The data set is described as follows: Elimination half-life. The settings on record: human, in vivo.

Each structure is given as a SMILES string.

As usually defined, the half-life is the time in which the quantity being followed falls by half. Read a low half-life as rapid decline. Turning to `[2H][C@@](C)(NC(=O)COC(F)F)c1cc(F)cc(Cl)c1COc1cccc2c(-c3ncnn3C)cc(C)nc12` [PHA-022121, (S)-N-(1-deutero-1-(3-chloro-5-fluoro-2-((2-methyl-4-(1-methyl-1H-1,2,4-triazol-5-yl)quinolin-8-yloxy)methyl)phenyl)ethyl)-2-(difluoromethoxy)acetamide], the half-life is roughly 4 h.

For the origin of these results see patent US20250268887A1, “THERAPEUTIC USES OF BRADYKININ B2-RECEPTOR ANTAGONISTS” (Pharvaris GmbH, priority 2022, published 2025).
